The record followed here is US8895552B2, “Cyclic amide derivative” (Sumitomo Dainippon Pharma Co., Ltd., priority 2010, dated 2014).

Molecules are shown by their SMILES. A value given as a limit tells only on which side of the number the result lay.

T2 sequence (P28845 whole entry): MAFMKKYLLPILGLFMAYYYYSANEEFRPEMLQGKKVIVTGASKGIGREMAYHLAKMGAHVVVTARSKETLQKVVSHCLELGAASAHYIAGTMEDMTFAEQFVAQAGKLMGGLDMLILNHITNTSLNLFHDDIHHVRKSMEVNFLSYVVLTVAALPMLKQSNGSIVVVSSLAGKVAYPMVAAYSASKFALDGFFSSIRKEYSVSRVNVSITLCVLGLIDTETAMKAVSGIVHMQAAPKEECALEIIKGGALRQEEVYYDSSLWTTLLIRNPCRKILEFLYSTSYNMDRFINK
T1 sequence (P50172 whole entry): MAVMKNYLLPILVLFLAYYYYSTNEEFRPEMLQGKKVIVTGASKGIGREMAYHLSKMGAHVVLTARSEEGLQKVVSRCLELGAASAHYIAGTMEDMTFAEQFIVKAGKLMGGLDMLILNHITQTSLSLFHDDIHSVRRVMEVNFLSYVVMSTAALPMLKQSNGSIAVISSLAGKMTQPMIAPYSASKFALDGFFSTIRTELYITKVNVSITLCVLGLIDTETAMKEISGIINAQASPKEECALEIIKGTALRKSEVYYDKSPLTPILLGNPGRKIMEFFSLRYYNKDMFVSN

The first experiment addresses T1, cortisone reductase (11βHSD1) (Mus musculus, UniProt P50172).
T1 construct: host or cells: primary cells from visceral fat tissue of ICR male mice, differentiated to adipocytes in culture
As to the kind of experiment: Inhibitory activity assay against cortisone reductase of mouse primary adipocytes. The format is cell-based. To be noted: differentiated primary adipocytes from visceral fat of ICR male mice, 100 nM [1,2-3H] cortisone, 37° C., read-out: IC50 against cortisone reductase of mouse adipose cell. As for the experimental part:
Experiment 2: Inhibitory Activity Assay Against Cortisone Reductase of Mouse Primary Adipocytes
The adipose tissues adhered to the mesenterium and around the testicle of ten ICR male mice (9 to 11 weeks old, Japan SLC Inc.) (hereinafter, referred to as visceral fat tissue) were soaked in about 100 mL of a phosphate buffer (0.20 g/L KCl, 0.20 g/L KH2PO4, 8.00 g/L NaCl, 2.16 g/L Na2HPO4.7H2O, 100 unit/ml penicillin (GIBCO), 100 μg/ml streptomycin (GIBCO), 250 ng/ml amphotericin (GIBCO)) and washed at room temperature.
The excised visceral fat tissues was cut finely in about 5×5 mm with scissors in Dulbecco's modified Eagle medium (about 50 ml, containing 4.5 g/L D-glucose and 584 mg/L L-glutamine, GIBCO) to which collagenase (Type II, Sigma), penicillin (GIBCO), streptomycin (GIBCO) and amphotericin (GIBCO) were added in an amount so that the final concentrations thereof are adjusted to 1 mg/ml, 100 unit/ml, 100 μg/ml and 250 ng/ml, respectively. Then, the mixture was shaken at 37° C. for 30 minutes (about 170 rpm), filtered through nylon mesh (80S [the pore size: 250 μm], SANSHIN INDUSTRIAL CO., LTD.), and the filtrate (cell suspension) was collected. This filtrate was centrifuged at 1800 rpm at room temperature for 5 minutes, and then, the liquid layer was removed stilly by decantation to give a precipitate. This precipitate was suspended in Dulbecco's modified Eagle medium (30 ml, containing 4.5 g/L D-glucose and 584 mg/L L-glutamine, GIBCO; hereinafter, occasionally referred to as FBS-containing medium), to which fetal bovine serum (hereinafter referred to as FBS, GIBCO), ascorbic acid (Wako Pure Chemical Industries, Ltd.), penicillin (GIBCO), streptomycin (GIBCO) and amphotericin (GIBCO) are added thereto in an amount so that the final concentrations thereof were adjusted to 10%, 200 μM, 100 units/ml, 100 μg/ml and 250 ng/ml, respectively, and then the suspension was filtered through a nylon mesh (420S [pore size: 25 μm], SANSHIN INDUSTRIAL CO., LTD.). The filtrate was collected, and centrifuged at 1800 rpm at room temperature for 5 minutes. The liquid layer was removed stilly by decantation, and the precipitate was suspended again in the FBS-containing medium (30 ml). This suspension was treated by the same procedure (centrifugation, removal of liquid layer, suspension in FBS-containing medium) two times more, and the suspension (90 ml) was prepared. This suspension was put into cell culture flasks (T150, for adhered cell culture, Iwaki Glass) in a each volume of 30 ml, and incubated at 37° C. in the presence of 5% CO2. At 5 to 6 hours after starting incubation, the medium was removed, and the wall of the flask was washed with the above-mentioned phosphate buffer (15 ml). The washing liquid was removed, and the washing procedure was repeated again, and the phosphate buffer was removed. To the flask was added FBS-containing medium (30 ml), and the mixture was incubated at 37° C. in the presence of 5% CO2. On Day 1 or Day 2 after the culture started, the medium was removed, and the wall of the flask was washed with the phosphate buffer (15 ml) once. To the flask was added a trypsin-ethylenediamine tetraacetate (hereinafter, referred to as trypsin-EDTA) solution (0.05% trypsin, 0.53 mM EDTA.4Na, GIBCO) in such a volume that the cells are duly soaked, and the mixture was allowed to stand at 37° C. for 5 minutes. To this mixture was added the FBS-containing medium in about 10-times volume of that of the trypsin-EDTA solution, and then the cell suspension was obtained.
The cells in the cell suspension were counted with a counting chamber, and the cell suspension was diluted with the FBS-containing medium so that the concentration of the cell was adjusted to 1.4×10^5 cells/ml. Thus obtained cell dilution was put into a 48-well plate (for adherent cell culture, Iwaki Glass) in an amount of 300 μl per well, and the plate was incubated at 37° C. in the presence of 5% CO2 for 1 to 2 day(s). […]
For the molecule `CCOc1cc(C(=O)c2cc(F)ccc2F)ccc1C(=O)NC1C2CC3CC1CC(O)(C3)C2` (stereo not drawn) [Example 258], the IC50 worked out at 3.2 nM.
The same measure, in the same setting: the same measure for `CCc1cc(C(=O)c2cccn2C)n(C)c1C(=O)NC1C2CC3CC1CC(O)(C3)C2` (stereo not drawn) [Example 485]: 18.4 nM; for `CCc1cc(C(=O)c2c(F)cccc2F)n(C)c1C(=O)NC1C2CC3CC1CC(O)(C3)C2` (stereo not drawn) [Example 487]: 25 nM.
Same read-out and setting: the same measure for `Cn1c(C(=O)c2ccccc2F)cc(Cl)c1C(=O)NC1C2CC3CC1CC(O)(C3)C2` (stereo not drawn) [Example 514]: 20.7 nM.
Still for that read-out and setting: the result for `Cc1cc(C(=O)c2cccn2C)sc1C(=O)NC1C2CC3CC1CC(O)(C3)C2` (stereo not drawn) [Example 11] reads 5.1 nM; that for `COc1cc(C(=O)c2cccn2C)ccc1C(=O)NC1C2CC3CC1CC(O)(C3)C2` (stereo not drawn) [Example 55], 4.8 nM.
Turning to `Cc1cc(C(=O)C2CCOCC2)sc1C(=O)N[C@H]1C2CC3CC1C[C@](O)(C3)C2` [Example 9], the concentration for half-maximal inhibition (IC50) was 11.1 nM.
Still for that read-out and setting: the result for `Cc1cc(C(=O)c2cccs2)sc1C(=O)NC1C2CC3CC1CC(O)(C3)C2` (stereo not drawn) [Example 10] reads 11.7 nM.
The same measure, in the same setting: the result for `CCc1cc(C(=O)C(C)(C)c2ccccc2)n(C)c1C(=O)NC1C2CC3CC1CC(O)(C3)C2` (stereo not drawn) [Example 505] reads 9.6 nM.

The next experiment has as its target T2, 11βHSD1 (Homo sapiens, UniProt P28845).
T2 construct: host or cells: normal human visceral preadipocytes differentiated to adipocytes
As to the kind of experiment: Inhibitory activity assay against cortisone reducing activity of cultured human adipocytes. The format is cell-based. Particulars: differentiated normal human preadipocytes (HPrAD-vis), 100 nM [1,2-3H] cortisone, 37° C., read-out: IC50 against cortisone reducing activity of human adipose cell. The protocol: Experiment 1: Inhibitory Activity Assay Against Cortisone Reducing Activity of Cultured Human Adipocytes
Normal human preadipocytes (HPrAD-vis, manufactured by Cambrex corporation) were inoculated onto a 48-well cell culture plate, and the differentiation induction was carried out according to Protocol attached to the kit. The medium for the cells on the 9-11 days of the differentiation was changed to D-MEM medium (0.2 ml; manufactured by GIBCO) containing 100 nM [1,2-^3H] cortisone (1 μCi/well, manufactured by Muromachi Yakuhin), 0.5% dimethylsulfoxide and a test compound (for test compound treated group, or dimethylsulfoxide only for the no-test compound treated group). The plate was incubated at 37° C. for 3 hours, and then the whole medium was collected. As a background group, the medium without cell was used. The medium was mixed with ethyl acetate (0.1 ml) in an Eppendorf tube. This mixture was voltexed, and then further centrifuged at 5,000 rpm for one minute at room temperature to separate the ethyl acetate (the upper layer). The ethyl acetate (10 μl) was spotted on an aluminium plate for thin layer chromatography (silica gel 60 angstrom, Merck & Co., Inc., hereinafter referred to as TLC plate). The developing solvent (chloroform/methanol (90:10, v/v)) was put into a sealed vessel, and the TLC plate was developed, and then dried at room temperature. An imaging plate (TR-2040, Fujifilm) was exposed onto the dried TLC plate for 16 hours or more. After the exposure was completed, the imaging plate was analyzed by Bioimage Analyzer (BAS2500, Fujifilm), and the [^3H] radioactivity was measured at the corresponding position of cortisol developed on the TLC plate. The inhibitory activity of a test compound against cortisone reducing activity was calculated according to the following equation. (inhibitory activity(%))=100×((group without test compound)−(group with test compound))/((group without test compound)−(background group))
The IC50 value was calculated by linear regression of logarithmic value of the concentration of test compound and the inhibitory activity value, using the data at 2 points showing around 50% of the inhibitory activity. […] The IC50 value of the following compounds of the present invention against cortisone reducing activity of human adipose cell was determined.
On to `COCc1cc(C(=O)c2ccccn2)ccc1C(=O)NC1C2CC3CC1CC(O)(C3)C2` (stereo not drawn) [Example 429], for which the IC50 came to 9.5 nM.
As for `CCc1cc(C(=O)c2cccc(OC)c2F)n(C)c1C(=O)NC1C2CC3CC1CC(O)(C3)C2` (stereo not drawn) [Example 486], the IC50 worked out at 2.8 nM.
On the same count and under the same terms, the result for `CCc1cc(C(=O)C2(c3ccccc3)CCC2)n(C)c1C(=O)NC1C2CC3CC1CC(O)(C3)C2` (stereo not drawn) [Example 504] reads 7.3 nM; that for `O=C(Cc1ccccc1)c1ccc(C(=O)N[C@H]2C3CC4CC2C[C@](O)(C4)C3)c(Cl)c1` [Example 52], 12 nM; that for `COCCc1cc(C(=O)c2ccccc2F)ccc1C(=O)N[C@H]1C2CC3CC1C[C@](O)(C3)C2` [Example 443, 4-(2-Fluorobenzoyl)-N-[(E)-5-hydroxyadamantan-2-yl]-2-(2-methoxyethyl)benzamide], 1.4 nM.
Take `CCc1cc(C(=O)c2ccc(F)cc2)ccc1C(=O)NC1C2CC3CC1CC(O)(C3)C2` (stereo not drawn) [Example 98]: the IC50 worked out at 3 nM.
Still for that read-out and setting: the result for `COCc1cc(C(=O)c2ccccc2)ccc1C(=O)N[C@H]1C2CC3CC1C[C@](O)(C3)C2` [Example 51] reads < 3 nM; that for `Cn1c(C(=O)c2cccc(F)c2)cc(Cl)c1C(=O)NC1C2CC3CC1CC(O)(C3)C2` (stereo not drawn) [Example 515], 1.5 nM; that for `CCc1cc(C(=O)c2ccc(C)s2)n(C)c1C(=O)NC1C2CC3CC1CC(O)(C3)C2` (stereo not drawn) [Example 499], < 3 nM.
On the same count and under the same terms, the same measure for `Cc1cc(C(=O)c2cccn2C)sc1C(=O)NC1C2CC3CC1CC(O)(C3)C2` (stereo not drawn) [Example 11]: 4.3 nM.
Still for that read-out and setting: the same measure for `CCc1cc(C(=O)c2cccc(F)c2F)n(C)c1C(=O)NC1C2CC3CC1CC(O)(C3)C2` (stereo not drawn) [Example 488]: 4.2 nM; for `CCCc1cc(C(=O)c2cccn2C)ccc1C(=O)NC1C2CC3CC1CC(O)(C3)C2` (stereo not drawn) [Example 424]: < 3 nM; for `Cc1cc(C(=O)c2ccccc2)n(C)c1C(=O)N[C@H]1C2CC3CC1C[C@](O)(C3)C2` [Example 62]: < 3 nM.
With `O=C(c1ccc(C(=O)NC2C3CC4CC2CC(O)(C4)C3)c(Cl)c1)c1ccccc1F` (stereo not drawn) [Example 16], the IC50 amounted to 3.6 nM.
Same read-out and setting: the result for `Cn1c(C(=O)c2ccc(F)cc2)cc(Cl)c1C(=O)NC1C2CC3CC1CC(O)(C3)C2` (stereo not drawn) [Example 516] reads < 3 nM.
The same measure, in the same setting: the result for `CCn1nccc1C(=O)c1ccc(C(=O)NC2C3CC4CC2CC(O)(C4)C3)c(COC)c1` (stereo not drawn) [Example 368] reads 3.7 nM; that for `COCc1cc(C(=O)c2ccccc2)n(C)c1C(=O)N[C@H]1C2CC3CC1C[C@](O)(C3)C2` [Example 440, 5-Benzoyl-N-[(E)-5-hydroxyadamantan-2-yl]-3-(methoxymethyl)-1-methyl-1H-pyrrole-2-carboxamide], < 3 nM; that for `Cn1cccc1C(=O)c1ccc(C(=O)N[C@H]2C3CC4CC2C[C@](O)(C4)C3)c(Cl)c1` [Example 53], 16 nM.
